Laboratory results: patent US20260373103A1, “COMPOSITIONS AND METHODS FOR PREVENTING CARDIOMYOPATHY” (OHIO STATE INNOVATION FOUNDATION, priority 2022, published 2026)

Experiments:
[1] = test system: HeLa-Parkin or HeLa-Parkin/USP30 cells; assay: Mitochondrial membrane potential (TMRM signal); format: cell-based; conditions: ST-539 3 to 10 μg/ml
Protocol: ΔΨm was measured using a fluorescence microplate reader (BioTek Instruments) in cells preincubated with Tetramethylrhodamine methyl ester (TMRM, Thermo Scientific) following manufacturer's instructions. Cells were washed in PBS before resuspension in Hank's balanced salt solution (HBSS; 156 mM NaCl, 3 mM KCl, 2 mM MgSO4, 1.25 mM KH2PO4, 2 mM CaCl2), 10 mM glucose and 10 mM HEPES; pH adjusted to 7.35 with NaOH) (1.0×10^6 cells/ml) containing 50 nM TMRM. For each individual experiment, average TMRM fluorescence was normalized to control cells.
We initially analyzed mitochondrial function using Tetramethylrhodamine (TMRM), a dye requiring mitochondrial membrane potential to accumulate within the mitochondria.

[2] = test system: TOM20; assay: TOM20 ubiquitination and TOM20 protein level after A/O, western blot; format: cell-based
Protocol: (§1) HeLa cells and mouse embryonic fibroblasts (MEFs) were grown in Dulbecco's minimum essential medium (DMEM) with 10% fetal bovine serum (FBS) supplemented with penicillin-streptomycin. HeLa Parkin, PINK1 KO cells, WT and MFN2 KO cells were previously described. Cells stably expressing USP30 were generated using lentiviral vectors of pLVX-Puro-Myc-USP30. The USP30 plasmid was obtained from Addgene. The plasmid was transferred into a lentiviral vector and viral particles were prepared by transiently transfecting HEK293T using standard methods. For the drug treatment experiments, cells were incubated in medium containing a mixture of 5 μM oligomycin and 5 μM antimycin A (A/O; see figures for treatment times). In 18 h treatment, A/O were used in combination with 10 μM quinolyl-valyl-O-methylaspartyl-[−2,6-difluorophenoxy]-methyl ketone (QVD), a broad-spectrum caspase inhibitor. ST51000539 (ST-539) was purchased from Tim Tec, Inc. Other chemicals were from Sigma-Aldrich (St. Louis, MO, USA). For FACS analysis, cells stably expressing mt-Keima were incubated in medium containing a mixture of 1 AM oligomycin and 1 AM antimycin A for 1.5 h. Prior to A/O treatment, cultures were treated with DMSO or ST-539 at 3 μg/ml. Cells were trypsinized, washed once with PBS buffer and then resuspended into 500 μl of PBS prior to analysis using a BD Fortessa flow cytometer as previously described.
Cells were lysed in RIPA buffer (50 mM Tris-HCl, at pH 8.0; 150 mM NaCl; 1% (vol/vol) Nonidet P-40; 0.5% sodium deoxycholate, 0.1% SDS and protease inhibitor cocktail (Roche)) on ice. Primary antibodies were used at the following concentrations: USP30 (Santa Cruz, sc-515235, 1:200); TOM20 (Cell Signaling Technology, 42406S, 1:1000); TOM40 (Proteintech, 18409-1-AP, 1:1000); NDP52 (Cell Signaling Technology, 60732S, 1:1000); TIM23 (Proteintech, 11123-1-AP, 1:500); LC3A/B (Cell Signaling Technology, 4108S, 1:1000); GAPDH (Cell Signaling Technology, 5175S, 1:1000); PINK1 (Cell Signaling Technology, 6946S, 1:1000); ACTIN (Cell Signaling Technology, 3700S, 1:1000). The membranes were incubated with anti-rabbit (LI-COR, 926-32211, 1:15000) or anti-mouse (LI-COR, 926-68072, 1:15000) IgG secondary antibodies for 1 h at room temperature. Images were captured using the Odyssey system (LI-Cor). One representative blot is shown of three independent experiments.
The enzymatic activity of Parkin is to function as an E3 ubiquitin ligase. […] To investigate TOM20 ubiquitination during mitophagy, we treated HeLa cells stably expressing YFP-Parkin (Hela-Parkin) for up to 18 h with both the mitochondrial complex III inhibitor antimycin A and the ATP synthase inhibitor oligomycin (antimycin A/oligomycin/[A/O]; FIG. 1A). […] A/O treatment also results in a decline in the abundance of the OMM protein TOM40 and the inner mitochondrial protein TIM23 (FIG. 1A). […] In this context, increased expression of USP30 blocked the accumulation of ubiquitinated TOM20 and prevented the destruction of this outer mitochondrial protein, as well as TOM40 and TIM23, after A/O treatment (FIG. 1A). We then employed this cellular assay to monitor TOM20 turnover, and analyzed compounds known to be associated with the ubiquitination process for inhibitors of USP30. […] We defined the effects of this chemical using biochemical assays. […] Initially to assess mitophagy in cells, we monitored the degradation of the inner membrane protein, the translocase of the inner membrane 23 (TIM23), by immunoblotting (FIG. 5A). […] USP30's overexpression prevented a reduction in TIM23 and TOM40 levels.
Genetic suppression of USP30 in Parkin-overexpressing cells promotes the clearance of mitochondria in response to mitochondrial depolarizing agents. […]

[3] = test system: Mfn2^−/− MEF cells; assay: Mitochondrial morphology, confocal imaging; format: cell-based, mouse; conditions: 3 or 10 μg/ml ST-539, 24 h
Protocol: as §1

[4] = test system: wild type MEFs; assay: Mitochondrial morphology, confocal imaging; format: cell-based, mouse; conditions: ST-539 3 or 10 μg/ml, 24 h
Protocol: as §1

[5] = test system: HeLa-Parkin cells and HeLa-Parkin cells that express USP30; assay: Mitophagy in cells by mt-Keima fluorescence FACS; format: cell-based
Protocol: as §1, with “For FACS analysis, cells stably expressing mt-Keima were incubated in medium containing a mixture of 1 AM oligomycin and 1 AM antimycin A for 1.5 h. Prior to A/O treatment, cultures were treated with DMSO or ST-539 at 3 μg/ml. Cells were trypsinized, washed once with PBS buffer and then resuspended into 500 μl of PBS prior to analysis using a BD Fortessa flow cytometer as previously described.” left out
We employed a sensitive fluorescence-activated cell sorting (FACS)-based method for detecting mitophagy using the pH-dependent fluorescent protein Keima. […] We exploited the mt-Keima probe and measured mitophagy in HeLa-Parkin cells and HeLa-Parkin cells that express USP30. […]

[6] = test system: Jurkat T cells; assay: Doxorubicin-induced apoptosis / cell viability, Resazurin assay; format: cell-based; conditions: 48 hours, ST-539 and doxorubicin
[7] = test system: HeLa-Parkin and HeLa-Parkin cells expressing USP30; assay: Oxygen consumption, Seahorse assay; format: cell-based
Protocol: Measurement of intact cellular respiration was performed using the Seahorse XFe96 Analyzer as previously described. In brief, 2×10^4 cells per well were seeded in the Seahorse XF Cell Culture Microplate (Agilent) using high-glucose DMEM at 37 °C, with a humidified atmosphere of 5% CO2, overnight. And a sensor cartridge was hydrated in Seahorse XF Calibrant in a non-CO2 incubator overnight at 37 °C. The high-glucose DMEM in Cell Culture Microplate was changed to warmed assay medium and placed into a 37 °C non-CO2 incubator for 45 minutes prior to the assay. Oligomycin (1.5 μM/well), FCCP (1 μM/well) and Antimycin A (0.5 μM/well) were supplemented at 18 minutes, 36 minutes and 54 minutes, respectively. The results were analyzed using the Seahorse Wave software.

[8] = ST-539 10 μg/ml, with A/O, presence of USP30

With `CC(C)(C)NS(=O)(=O)c1cccc2c(NC(=O)C(Cc3ccccc3)NC(=O)c3ccccc3)cccc12` (centres unmarked) [ST-539] the “TMRM staining (mitochondrial membrane potential)” value [1] was “did not block TMRM staining”, the “TOM20 ubiquitination and decline in TOM20 level on addition of ST-539” value ([2]; A/O plus ST-539 1 or 3 μg/ml, cells expressing both ectopic Parkin and endogenous PINK1) was “further potentiated” and the “correlation of TOM20 ubiquitination with ST-539 dosage” value ([2]; A/O treatment) was “A close correlation exists”. The “reduction in TOM20 level relative to vehicle treated cells” value ([2]; Parkin positive cells, A/O 18 h, ST-539 3 μg/ml, not in WT HeLa or PINK1 KO cells) was “more significant reduction”, the TOM20 ubiquitination [2, 8] was “caused a ubiquitinated TOM20” and the “loss of TOM20 protein level” value [2, 8] was ~ 90%. The “TOM20 ubiquitination independent of functional PINK1/Parkin pathway” value ([2]; long term treatment (18 h), ST-539 3 μg/ml) was “did not promote TOM20 ubiquitination”, the elongation of mitochondria [3] was “did not induce the elongation of mitochondria significantly” and the mitochondrial morphology [4] was “failed to change the mitochondrial morphology”. For the same compound, the “A/O induced mitophagy (mt-Keima FACS)” value ([5]; ST-539 3 μg/ml, HeLa-Parkin cells expressing USP30) was “restored A/O induced mitophagy”, the “mitophagy in the absence of mitochondrial stress” value ([5]; cellular studies, ST-539, no stress) was “minimal change in mitophagy” and the “doxorubicin-induced apoptosis in leukemia (percent cell viability)” value [6] was “potentiates doxorubicin-induced apoptosis in leukemia”. The “basal and maximal respiration” value ([7]; 24 h ST-539, high dose) was “slight increase” and the “basal respiration and spare respiratory capacity” value ([7]; ST-539, both cell lines) was “Slightly increased”.
